≈ marks a conversion by molar mass, not a printed value.

The test system of the experiment is E. coli. The experiment can be described thus: Bacterial susceptibility testing, MIC by broth microdilution (CLSI). The note with it: for E. coli MIC: broth microdilution, 35° C., 18-24 h; for MIC: Escherichia coli, read-out: E. coli MIC, broth microdilution, 35° C., 18-24 h.

Procedure: Minimal inhibitory concentrations (MIC) were determined by the broth microdilution method in accordance with the Clinical and Laboratory Standards Institute (CLSI) guidelines. In brief, organism suspensions were adjusted to a 0.5 McFarland standard to yield a final inoculum between 3×10^3 and 7×10^5 colony-forming units (CFU)/mL. Drug dilutions and inocula were made in sterile, cation adjusted Mueller-Hinton Broth (Beckton Dickinson). An inoculum volume of 100 μL was added to wells containing 100 μL of broth with 2-fold serial dilutions of drug.

As for `O=C(CO)N1CC[C@@H](NCc2ccc(C#Cc3ccc(C(CO)Cc4nc[nH]c(=O)c4O)cc3)cc2)C1` (single isomer, unassigned) [Compound 46], the “E. coli MIC” value is on record as “A (A: ≤1 μg/mL)”.

With `COC1CN(Cc2ccc(C#Cc3ccc(C(CN[C@H](C)CF)Cc4nc[nH]c(=O)c4O)cc3)cc2)C1` (single isomer, unassigned) [Compound 69], the MIC is < 1 µg/mL.

With `CO[C@@H]1CCN(Cc2ccc(C#Cc3ccc(C(CN[C@@H](C)CF)Cc4nc[nH]c(=O)c4O)cc3)cc2)C1` (single isomer, unassigned) [Compound 87], the “E. coli MIC” value is recorded as “B (B: >1 μg/mL to ≤8.0 μg/mL)”.

As to `C[C@@H](CC#N)NCC(Cc1nc[nH]c(=O)c1O)c1ccc(C#Cc2ccc(CN3CCOCC3)cc2)cc1` (single isomer, unassigned) [Compound 98], the minimum inhibitory concentration (MIC) is < 1 µg/mL.

`C[C@@H](CC#N)NCC(Cc1ncnc(O)c1O)c1ccc(C#Cc2ccc(CN3CCOCC3)cc2)cc1` (single isomer, unassigned) [Compound 99]: the minimal inhibitory concentration (MIC) was < 1 µg/mL.

For the compound `C[C@H](CC#N)NCC(Cc1ncnc(O)c1O)c1ccc(C#Cc2ccc(CN3CCOCC3)cc2)cc1` (single isomer, unassigned) [Compound 100], the MIC was < 1 µg/mL.

As to `O=c1[nH]cnc(C[C@@H](CNCC(F)F)c2ccc(C#Cc3ccc(CN4CCOCC4)cc3)cc2)c1O` (single isomer, unassigned) [Compound 116], the minimum inhibitory concentration (MIC) fell in the range of 1 to 8 µg/mL (≈ 1.97 to 15.7 µM).

For the compound `O=c1[nH]cnc(C[C@H](CNCC(F)F)c2ccc(C#Cc3ccc(CN4CCOCC4)cc3)cc2)c1O` (single isomer, unassigned) [Compound 117], the MIC was < 1 µg/mL.

Take `CO[C@@H]1CCN(Cc2ccc(C#Cc3ccc(C(CNCC(C)F)Cc4nc[nH]c(=O)c4O)cc3)cc2)C1` (single isomer, unassigned) [Compound 136]: the “E. coli MIC” value is “D (D: >32 μg/mL)”.

For `CO[C@@H]1CCN(Cc2ccc(C#Cc3ccc(C(CNCC(C)F)Cc4nc[nH]c(=O)c4O)cc3)cc2)C1` (single isomer, unassigned) [Compound 137], the “E. coli MIC” value was “B (B: >1 μg/mL to ≤8.0 μg/mL)”.

In the case of `O=c1[nH]cnc(CC(CN[C@@H]2CCOC2)c2ccc(C#Cc3ccc(CN4CCOCC4)cc3)cc2)c1O` (single isomer, unassigned) [Compound 162], the minimal inhibitory concentration (MIC) fell in the range of 1 to 8 µg/mL (≈ 1.94 to 15.5 µM).

As to `O=c1[nH]cnc(CC(CN[C@@H]2CCOC2)c2ccc(C#Cc3ccc(CN4CCOCC4)cc3)cc2)c1O` (single isomer, unassigned) [Compound 163], the “E. coli MIC” value is on record as “A (A: ≤1 μg/mL)”.

On to `C[C@@H](CO)NCC(Cc1nc[nH]c(=O)c1O)c1ccc(C#Cc2ccc(CN3CCOCC3)cc2)cc1` (single isomer, unassigned) [Compound 168], for which the “E. coli MIC” value is on record as “B (B: >1 μg/mL to ≤8.0 μg/mL)”.

On to `C[C@@H](CO)NCC(Cc1nc[nH]c(=O)c1O)c1ccc(C#Cc2ccc(CN3CCOCC3)cc2)cc1` (single isomer, unassigned) [Compound 169], for which the “E. coli MIC” value is “A (A: ≤1 μg/mL)”.

`C[C@H](CO)NCC(Cc1nc[nH]c(=O)c1O)c1ccc(C#Cc2ccc(CN3CCOCC3)cc2)cc1` (single isomer, unassigned) [Compound 170]: the MIC fell in the range of 1 to 8 µg/mL (≈ 1.99 to 15.9 µM).

With `C[C@H](CO)NCC(Cc1nc[nH]c(=O)c1O)c1ccc(C#Cc2ccc(CN3CCOCC3)cc2)cc1` (single isomer, unassigned) [Compound 171], the “E. coli MIC” value is given as “A (A: ≤1 μg/mL)”.

On to `C[C@@H](CF)NCC(Cc1nc[nH]c(=O)c1O)c1ccc(C#Cc2ccc(CNC3CCS(=O)(=O)C3)cc2)cc1` (single isomer, unassigned) [Compound 178], for which the minimum inhibitory concentration (MIC) is 1 to 8 µg/mL (≈ 1.81 to 14.5 µM).

Regarding `CC(=O)N1CC[C@H](NCC(Cc2nc[nH]c(=O)c2O)c2ccc(C#Cc3ccc(CN4CCOCC4)cc3)cc2)C1` (single isomer, unassigned) [Compound 182], the minimum inhibitory concentration (MIC) is 1 to 8 µg/mL (≈ 1.8 to 14.4 µM).

Turning to `CC(=O)N1CC[C@H](NCC(Cc2nc[nH]c(=O)c2O)c2ccc(C#Cc3ccc(CN4CCOCC4)cc3)cc2)C1` (single isomer, unassigned) [Compound 183], the “E. coli MIC” value is on record as “A (A: ≤1 μg/mL)”.

Source of the values: patent US11407740B2 (priority 2018, dated 2022).
